In publication PMC9687812, “Discovery of Trace Amine-Associated Receptor 1 (TAAR1) Agonist 2-(5-(4′-Chloro-[1,1′-biphenyl]-4-yl)-4H-1,2,4-triazol-3-yl)ethan-1-amine (LK00764) for the Treatment of Psychotic Disorders” (Biomolecules, 2022):

Key:
[1] = system: MK-801-treated Wistar rats; test: MK-801-induced hyperactivity in rats (Actometer); assay type: in vivo, rat
Description: (§1) MK-801 (dizocilpine, (+)-5-methyl-10,11-dihydro-5H-dibenzo-[a,d]-cyclohepten-5,10-imine maleate; Sigma-Aldrich, St. Louis, MO, USA) was dissolved in saline. Compound 62 (LK00764) was dissolved in 10% Tween 80 saline solution. All solutions were made fresh shortly before injections. Drug doses were tested in a pseudo-random order derived from Latin square design with at least 72 h between consecutive tests. All drugs and vehicles were administered intraperitoneally (i.p.) in the volume of 1 mL/kg. Drug doses are reported as salts. Selection of the MK-801 dose (0.2 mg/kg) was based the previous experience with the compound [24]. All locomotor activity tests (duration—60 min) were performed 15 min after the administration of compounds.
We evaluated locomotor activity of rats in the Actometer apparatus. A detailed description of the apparatus has been presented before. […]
Glutamate NMDA receptor antagonist-induced hyperactivity in rodents is commonly used as a pharmacological animal model of schizophrenia in the screening of potential antipsychotics. […] Thus, we used MK-801 (0.2 mg/kg, i.p.) treatment to induce hyperactivity in rats and analyzed the effects of compound 62 (LK00764) at doses of 0.3, 1, 3, 5, and 10 mg/kg, i.p. on locomotor activity of MK-801-treated Wistar rats.

intact Wistar rats = test: Spontaneous locomotor activity of intact rats (Actometer); assay type: in vivo, rat; settings: 0.3–10 mg/kg i.p., n = 9
Description: as §1
(§2) We evaluated locomotor activity of rats in the Actometer apparatus. A detailed description of the apparatus has been presented before. Shortly, each box of the apparatus was equipped by photocell-based infrared sensors to assess horizontal and vertical activity. Wistar rats were tested in the apparatus following a one-week habituation period (baseline period). During this period, the animals were placed in locomotor activity boxes for 60 min per day, 6 days a week to habituate them to the environment. […]
Next, we analyzed the locomotor effects of compound 62 (LK00764, 0.3–10 mg/kg, i.p.) on the additional group of intact rats (n = 9).

DAT-KO rats = test: Spontaneous locomotor hyperactivity of dopamine transporter knockout (DAT-KO) rats; assay type: in vivo, rat
Description: as §1
as §2, with “period).” for “period). During this period, the animals were placed in locomotor activity boxes for 60 min per day, 6 days a week to habituate them to the environment.”
Animals without DAT have a disrupted re-uptake of dopamine resulting in remarkably elevated extracellular dopamine levels and spontaneous locomotor hyperactivity. […] Thus, we next evaluated the effects of LK00764 (1–10 mg/kg, i.p.) on spontaneous locomotor hyperactivity of DAT-KO rats (n = 9).

Wistar male rats = test: Stress-induced hyperthermia (SIH) test; assay type: in vivo, rat; settings: n = 8
Description: SIH test is commonly used to evaluate the potential anti-anxiety effect of drugs. Thermometry was performed rectally in rats with a BIOSEB thermometer. Eight Wistar male rats were injected i.p. with vehicle or LK00764, dissolved in 10% tween 80 saline solution. Latin square design was used for the experiment. The first measurement was performed directly before the injection and the second measurement was performed 15 min later. The difference between the first and the second temperature was calculated.
Another behavioral paradigm known to be affected by TAAR1 agonists is the stress-induced hyperthermia test, which is believed to be a sensitive approach to evaluate the anxiolytic action of compounds [10, 42, 39a]. Thus, compound 62 (LK00764) was evaluated in this test at doses of 3 and 5 mg/kg, i.p. (Figure 7). At both doses, this compound was effective in suppressing stress-induced hyperthermia in rats (p < 0.05 and p < 0.001 for 3 and 5 mg/kg, respectively; Dunn’s test).

TAAR1 = target: T1, TAAR1 (Homo sapiens, UniProt Q96RJ0); test: BRET-based cellular cAMP (EPAC biosensor) assay of TAAR1 agonism in transfected HEK-293 cells
T1 sequence (Q96RJ0 1-339): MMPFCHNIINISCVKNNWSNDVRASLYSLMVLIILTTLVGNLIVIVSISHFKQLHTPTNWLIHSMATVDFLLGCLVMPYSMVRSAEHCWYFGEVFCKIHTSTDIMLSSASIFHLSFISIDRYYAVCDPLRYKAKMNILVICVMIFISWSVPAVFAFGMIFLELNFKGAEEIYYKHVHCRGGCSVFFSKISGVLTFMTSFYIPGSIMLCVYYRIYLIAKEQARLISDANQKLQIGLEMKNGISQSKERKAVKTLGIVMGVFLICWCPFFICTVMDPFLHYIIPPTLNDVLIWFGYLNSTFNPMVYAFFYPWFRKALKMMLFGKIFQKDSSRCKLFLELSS
Description: The Bioluminescence Resonance Energy Transfer approach (BRET) has been used for functional activity experiments. HEK-293 cells were transiently transfected with cDNA for TAARs and cAMP BRET biosensor (EPAC) and then plated in a 96-well plate, as described [23]. All compounds were tested at the initial concentration of 10 µM. […] A natural agonist of TAAR1 β-phenylethylamine (β-PEA) was used as a positive control.

SMILES: Cl.NCCc1nnc(-c2ccc(-c3ccc(Cl)cc3)cc2)[nH]1 [Compound 62, 2-(5-(4′-Chloro-(1,1′-biphenyl)-4-yl)-4H-1,2,4-triazol-3-yl)ethan-1-amine Hydrochloride]
- effect on MK-801-induced hyperactivity (horizontal and vertical activity) ([1]; 0.3, 1, 3, 5, 10 mg/kg i.p., MK-801 0.2 mg/kg i.p., Friedman test, horizontal p < 0.05, vertical p < 0.01, n = 7): dose-dependently mitigated
- effect on horizontal and vertical locomotor activity vs vehicle in MK-801-treated rats ([1]; doses of 5 and 10 mg/kg i.p., Dunnett's test p < 0.05): significant
- vertical activity of intact rats (intact Wistar rats; Friedman p < 0.001): decreased
- horizontal activity of intact rats (intact Wistar rats; Friedman p = 0.60): did not affect
- horizontal and vertical activity of DAT-KO rats (DAT-KO rats; 1–10 mg/kg i.p., n = 9, Friedman p < 0.05): significant dose-dependent decrease
- locomotor hyperactivity of DAT-KO rats vs vehicle (DAT-KO rats; only the highest tested dose, 10 mg/kg i.p., Dunnett's test): significantly (p < 0.05) diminished
- suppression of stress-induced hyperthermia (Wistar male rats; 3 mg/kg i.p., p < 0.05 Dunn's test): effective
- suppression of stress-induced hyperthermia (Wistar male rats; 5 mg/kg i.p., p < 0.001 Dunn's test): effective
- melting point: 247 to 249 °C
- EC50 (TAAR1): 4 nM
- potency relative to Ulotaront (times higher) (TAAR1): more than 30 times
- Emax (TAAR1; HEK293, read-out: Emax: maximum observed activation of TAAR1 relative to that observed for 1 μM of β-PEA): 101%
